Measurements reported in patent US7618957B2, “Perfluoroalkyl-containing complexes, process for their production as well as their use” (Bayer Schering Pharma Aktiengesellschaft, priority 2005, dated 2009).

Assays:
[1] = Relaxivity (T1 and T2 relaxation times) in water, NMR pulse spectrometer Minispec PC 20; assay type: physicochemical; conditions: 40° C., 0.47 T
Experimental: (§1) The T1 and T2 relaxation times of water and plasma (bovine) with increasing concentrations of the gadolinium complexes of the title substances of Examples 1d, 5c, 14c, 15c contained therein were determined at 40° C. with use of an NMR pulse spectrometer (Minispec PC 20) at 0.47 T. The results are set forth in Table 1.

[2] = Relaxivity (T1 and T2 relaxation times) in plasma (bovine), NMR pulse spectrometer Minispec PC 20; assay type: physicochemical; conditions: 40° C., 0.47 T
Experimental: as §1

[3] = tested on: mice; assay: Acute toxicity after one-time intravenous administration in mice (preliminary); assay type: in vivo; conditions: one-time i.v., observation period of 7 days
Experimental: After intravenous administration of the gadolinium complexes of the title substances of Examples 1d, 5c, 14c, 15c in mice (n=3; rate of injection: 2 ml/min), the acute systemic compatibility (LD50) was determined preliminarily. In each case, several dosages with an observation period of 7 days were examined. The acute toxicities that are to be expected can be seen in Table 1.

[4] = Excretion after intravenous administration in rats (ICP-AES); assay type: in vivo; conditions: 50 μmol of total gadolinium/kg i.v., 14 days after administration
Experimental: After intravenous administration of 50 μmol of total gadolinium/kg of body weight of the gadolinium complexes of the title substances of Examples 1d, 5c, 14c, 15c in rats (n=3), the metal content was determined in fractions up to 14 days after administration by means of atom emission spectrometry (ICP-AES) in the excretion media of urine and feces, as well as in the body (the rest of the body).

[5] = Plasma kinetics after intravenous administration in rats (ICP-AES); assay type: in vivo; conditions: 50 μmol of total gadolinium/kg i.v.; for Elimination Half-Life of Blood: calculated with WinNonlin from plasma concentrations
Experimental: After intravenous administration of 50 μmol of total gadolinium/kg of body weight of the gadolinium complexes of the title substances of Examples 1d, 5c, 14c, 15c in rats (n=3), blood samples were taken via a catheter in the common carotid artery at different points in time ([…].), the metal content was determined by means of atom emission spectrometry (ICP-AES) and converted to plasma values via a conversion factor (0.625). The elimination half-life was calculated by means of special software (WinNonlin) from the plasma concentrations.

[6] = tested on: arteriosclerotic plaque of WHHL rabbits; assay: MRT visualization of arteriosclerotic plaque after intravenous administration; assay type: in vivo, Watanabe rabbits; conditions: 50 μmol of Gd/kg i.v., 6 or 24 hours after administration
Experimental: The pictures of FIG. 3 show MR images of the aorta 6 or 24 hours after intravenous administration of 50 μmol of Gd/kg of body weight of the title substances from Example 1d) and Example 14c in Watanabe rabbits (WHHL rabbits; genetically-induced arteriosclerosis) and in control animals without arteriosclerosis (white New Zealanders). […] The localization of the plaque, especially in the aortic arch as well as in the vascular passages, was confirmed by means of Sudan-3 staining. With this test, the suitability of the compounds according to the invention as markers for arteriosclerotic plaque could be shown.

[7] = tested on: inflammatory muscle lesions and necrotic areas; assay: MRT visualization of inflammatory lesions and necrotic areas in rats; assay type: in vivo; conditions: Rose Bengal/xenon lamp induced lesion, 50 μmol of Gd/kg i.v.
Experimental: By way of example, the pictures of FIG. 4 show MR images of inflammatory muscle lesions as well as necrotic areas at different points in time after intravenous administration of 50 μmol of Gd/kg of body weight of the title substance of Example 14c in rats. The inflammation/necrosis was induced by intravenous administration of Rose Bengal (20 mg/kg; 24 hours before the administration of contrast medium) and subsequent 20-minute irradiation with a xenon lamp.

[8] = tested on: popliteal lymph nodes; assay: MRT visualization of lymph nodes after intravenous administration in rats; assay type: in vivo; conditions: 50 μmol of Gd/kg i.v., up to 60 minutes p.i.
Description: By way of example, the pictures show MR images of popliteal lymph nodes at different points in time after intravenous administration of 50 μmol of Gd/kg of body weight of the title substance from Example 5c), title substance from Example 14c) and title substance from Example 15c) in rats.

[9] = tested on: VX2-tumor-carrying rabbits; assay: MRT visualization of lymph node metastases and primary tumors in VX2-tumor-carrying rabbits; assay type: in vivo; conditions: rabbits with i.m. implanted VX2 tumors, 50 μmol of Gd/kg i.v.
Experimental: The pictures of FIGS. 1 and 2 show MR images of iliac lymph nodes precontrast as well as up to 24 hours after intravenous administration of 50 μmol of Gd/kg of body weight of the title substance of Example 1d) in rabbits with i.m. implanted VX2 tumors. […] Zones where there was no signal rise within the lymph node were diagnosed as metastases and confirmed histologically (H/E staining of the lymph node sections) (FIG. 1).
At later times (24 hours p.i.), this enhancement also propagates toward the center of the tumor.

Compound: COCCOCCOCCOCC(=O)N(CCNC(=O)CNC(=O)C(C)N1CCN(CC(=O)[O-])CCN(CC(=O)[O-])CCN(CC(=O)[O-])CC1)CCC(F)(F)C(F)(F)C(F)(F)C(F)(F)C(F)(F)C(F)(F)C(F)(F)C(F)(F)F.[Gd+3] (centres unmarked) [Example 14, N-{[1,4,7-Tris-(carboxylatomethyl)-1,4,7,10-tetraazacyclododecane-10-N-(pentanoyl-3-aza-4-oxo-5-methyl-5-yl)]-2-aminoethyl}-N-(1H,1H,2H,2H-perfluorodecyl)-2-{-2-[2-(2-methoxyethoxy)-ethoxy]-ethoxy}-acetamide, Gd Complex]
- Relaxivity R1(w) = R1-relaxivity in water [1]: R1(w): 18.6 1/(mmol * s)
- Relaxivity R1(p) = R1-relaxivity in plasma [2]: R1(p): 25.5 1/(mmol * s)
- LD50 Mouse [3]: 7.5 mmol/kg
- Body Retention 14 days [4]: 0.0%
- Gd Content of Blood 24 Hours p.i. [5]: 0.0%
- Elimination Half-Life of Blood [5]: 1.1 h
- signal rise in the arteriosclerotic plaque, T1-weighted inversion-recovery MR images of the aorta [6]: strong signal rise
- signal rise in the central necrosis, T1-weighted turbo-spin-echo MR images ([7]; 24 hours p.i.): delayed signal rise
- signal rise in the inflammatorily altered tissue, T1-weighted turbo-spin-echo MR images ([7]; up to 60 minutes p.i.): strong signal rise
- signal rise in the functional lymph node tissue (popliteal lymph nodes), T1-weighted turbo-spin-echo MR images [8]: strong signal rise

Compound: COCCOCCOCC(=O)N(CCNC(=O)CNC(=O)C(C)N1CCN(CC(=O)[O-])CCN(CC(=O)[O-])CCN(CC(=O)[O-])CC1)CCC(F)(F)C(F)(F)C(F)(F)C(F)(F)C(F)(F)C(F)(F)C(F)(F)C(F)(F)F.[Gd+3] (centres unmarked) [Example 5, N-{[1,4,7-Tris-(carboxylatomethyl)-1,4,7,10-tetraazacyclododecane-10-N-(pentanoyl-3-aza-4-oxo-5-methyl-5-yl)]-2-aminoethyl}-N-(1H,1H,2H,2H-perfluorodecyl)-2-[2-(2-methoxyethoxy)-ethoxy]-acetamide, Gd Complex]
- Relaxivity R1(w) = R1-relaxivity in water [1]: R1(w): 18.9 1/(mmol * s)
- Relaxivity R1(p) = R1-relaxivity in plasma [2]: R1(p): 24.8 1/(mmol * s)
- Body Retention 14 days [4]: 0.0%
- Gd Content of Blood 24 Hours p.i. [5]: 0.0%
- Elimination Half-Life of Blood [5]: 0.8 hour hours
- signal rise in the functional lymph node tissue (popliteal lymph nodes), T1-weighted turbo-spin-echo MR images [8]: strong signal rise

Compound: CC(C(=O)NCC(=O)NCCN(CCC(F)(F)C(F)(F)C(F)(F)C(F)(F)C(F)(F)C(F)(F)C(F)(F)C(F)(F)F)C(=O)CO[C@H]1O[C@H](CO)[C@@H](O)[C@H](O)[C@@H]1O)N1CCN(CC(=O)[O-])CCN(CC(=O)[O-])CCN(CC(=O)[O-])CC1.[Gd+3] (stereo partly drawn) [Example 1, N-{[1,4,7-Tris-(carboxylatomethyl)-1,4,7,10-tetracyclododecane-10-N-(pentanoyl-3-aza-4-oxo-5-methyl-5-yl)]-2-aminoethyl}-N-(1H,1H,2H,2H-perfluorodecyl)-2-(1-O-α-d-mannopyranosyl)-acetamide, Gd Complex]
- Relaxivity R1(w) = R1-relaxivity in water [1]: R1(w): 22.7 1/(mmol * s)
- Relaxivity R1(p) = R1-relaxivity in plasma [2]: R1(p): 25.8 1/(mmol * s)
- LD50 Mouse [3]: >10 mmol/kg
- Body Retention 14 days [4]: 0.0%
- Gd Content of Blood 24 Hours p.i. [5]: 0.7%
- Elimination Half-Life of Blood [5]: 4.8 h
- signal rise in healthy lymph node tissue (iliac lymph nodes), T1-weighted turbo-spin-echo MR images ([9]; 15 to 60 minutes p.i.): strong signal rise
- enhancement in the primary tumor, MR images ([9]; immediately after administration): clear enhancement
- signal rise in the arteriosclerotic plaque, T1-weighted inversion-recovery MR images of the aorta [6]: strong signal rise

Compound: COCCOCC(=O)N(CCNC(=O)CNC(=O)C(C)N1CCN(CC(=O)[O-])CCN(CC(=O)[O-])CCN(CC(=O)[O-])CC1)CCC(F)(F)C(F)(F)C(F)(F)C(F)(F)C(F)(F)C(F)(F)C(F)(F)C(F)(F)F.[Gd+3] (centres unmarked) [Example 15, N-{[1,4,7-Tris-(carboxylatomethyl)-1,4,7,10-tetraazacyclododecane-10-N-(pentanoyl-3-aza-4-oxo-5-methyl-5-yl)]-2-aminoethyl}-N-(1H,1H,2H,2H-perfluorodecyl)-2-(2-methoxyethoxy)-acetamide, Gd Complex]
- Relaxivity R1(w) = R1-relaxivity in water [1]: R1(w): 17.2 1/(mmol * s)
- Relaxivity R1(p) = R1-relaxivity in plasma [2]: R1(p): 24.6 1/(mmol * s)
- LD50 Mouse [3]: >10 mmol/kg
- Body Retention 14 days [4]: 0.0%
- Gd Content of Blood 24 Hours p.i. [5]: 0.2%
- Elimination Half-Life of Blood [5]: 4.8 h
- signal rise in the functional lymph node tissue (popliteal lymph nodes), T1-weighted turbo-spin-echo MR images [8]: strong signal rise
